Measurements as given in publication PMC3614987, “Exploring the Chemical Space around 8-Mercaptoguanine as a Route to New Inhibitors of the Folate Biosynthesis Enzyme HPPK” (PLoS ONE, 2013).
“Also recorded” adds a separate entry of the source. Where two headings read alike, the source gives them in different places.

Columns and labels:
SaHPPK [1] = target: T1, SaHPPK (Staphylococcus aureus, UniProt A0A0H3JXR3); design: method as in Chhabra et al PlosONE 2012; conditions: ITC; ref Chhabra et al PlosONE 2012; cited from earlier work
SaHPPK [2] = target: T1, SaHPPK; design: method as in PMID 22276115; conditions: SPR and ITC; cited from earlier work
SaHPPK [3] = target: T1, SaHPPK; design: method as in PMID 22276115; conditions: inhibition of the S. aureus enzyme; cited from earlier work
SaHPPK [4] = target: T1, SaHPPK; assay: SPR binding to SaHPPK
Excerpt: Initially, the binding of each of the test compounds to SaHPPK was quantitatively assessed using SPR (Fig. S1, S2). […] Moreover, all sensorgrams (Fig. S1 and S2) were of high quality and consistent with near perfect 1∶1 stoichiometric binding of analogues. Table 1 lists the estimated equilibrium dissociation constants (KD). […] This supports the hypothesis that the 8-mercapto group of 8-MG aids binding through the formation of one or more favorable interactions with SaHPPK.
All SPR binding experiments were performed as described previously. The only difference was the use of a sulfhydryl reactive maleimide-activated biotin derivative (Thermo Scientific, 1-biotinamido-4-(4′-[maleimidoethylcyclohexane]-carboxamido)butane. The maleimide-activated biotin was attached to the exposed surface cysteine residue of SaHPPK according to manufacturer’s instructions. The resulting site-specific biotinylated protein was immobilized onto the sensor chip surface using the Biotin capture kit (GE Healthcare). All analogues were serially diluted (either 2- or 3-fold from 126 µM down to 1.5 µM) in SPR binding buffer (50 mM HEPES, 150 mMNaCl, 1 mM TCEP, 0.05% (v/v) Tween-20, 10 mM MgCl2, 5% (v/v) DMSO, pH 8.0) and injected for 30 sec contact time at 60 µL/min and then allowed to dissociate for 60 sec. Binding sensorgrams were processed using the Scrubber (version 2c, BioLogic Software, Campbell, Australia). To determine the binding affinity (equilibrium dissociation constant; KD), responses at equilibrium for each compound were fit to a 1∶1 steady state affinity model available within Scrubber.

SaHPPK [5] = target: T1, SaHPPK; assay: ITC binding to SaHPPK; conditions: 298 K; for ΔG: calculated as -RT.lnKa; for TΔS: calculated using ΔG = ΔH - TΔS; for Kd: read-out: K D ITC
Experimental: To corroborate the ligand binding affinities determined by SPR, and to determine the enthalpic and entropic contributions to the free energy of binding, ITC experiments were performed for selected compounds (21a and 21c–21e) (Table 2, Fig. S3). […] To investigate the factors contributing to the free energy of binding, we solved the structure of SaHPPK in complex with 21a.
Experiments were performed using an iTC200 instrument (MicroCal) at 298 K, with the ligands titrated into solutions of SaHPPK using 18×2.2 µL injections. Data were fitted using Origin software to yield the thermodynamic parameters, ΔH, KD and N (the binding stoichiometry), assuming a cell volume of 0.2 mL. These were then used to calculate the Gibb’s free energy of binding, ΔG (-RT.lnK a), and entropy of binding, ΔS (using ΔG = ΔH - TΔS). A stock solution of SaHPPK was dialyzed overnight into 50 mM HEPES, 1 mM TCEP, 10 mM MgCl2, pH 8.0 buffer with the addition of 5% DMSO (v/v) prior to running the experiment. For titrations with compounds 21a–e, SaHPPK was typically at 30 µM and the ligand stocks were at 1–1.5 mM dissolved in the above buffer then diluted into more of the same buffer. There was no apparent issue with limited solubility of 21a–c compromising either the stock solutions or the injected concentrations.

SaHPPK [6] = target: T1, SaHPPK; assay: 2D 15N NMR titration of 15N-labelled SaHPPK; assay type: binding
Experimental: ^15N-labelled protein samples for NMR spectroscopy were prepared as described. 2D soFast ^15N HMQC [43] NMR experiments were recorded on a Varian Inova 600 MHz NMR spectrometer equipped with a cryoprobe and Z axis gradient on samples of ∼100 µM ^15N-labelled SaHPPK dissolved in 50 mM HEPES buffer (pH 8.0, 90% H2O 10% D2O, 1% sorbitol) by titrating in aliquots from a 25 mM stock of 21a dissolved in DMSO-D6.

SaHPPK [7] = target: T1, SaHPPK; conditions: cofactor analogue; no reference given; cited from earlier work
HPPK = target: HPPK; design: method as in PMID 10751386, PMID 12093297, PMID 11311059, PMID 10825540, PMID 22169600; conditions: ATP binds prior to the substrate; cited from earlier work
[8] = SPR, in the presence of 10 mM Mg2+/1 mM ATP, 293 K, read-out: K D b
[9] = SPR, in the presence of 10 mM Mg2+, 293 K
[10] = SPR, in the presence of 10 mM Mg2+, 293 K, read-out: K D a

T1 sequence (A0A0H3JXR3 entry or part of it): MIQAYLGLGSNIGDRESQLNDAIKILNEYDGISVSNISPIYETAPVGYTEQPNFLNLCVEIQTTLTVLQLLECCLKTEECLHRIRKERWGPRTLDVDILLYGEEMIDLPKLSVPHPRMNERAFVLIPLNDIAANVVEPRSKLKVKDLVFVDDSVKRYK

Nc1nc2nc(S)[nH]c2c(=O)[nH]1 [8-MG, 8-mercaptoguanine]
N (binding stoichiometry) (SaHPPK [1]): 1.0±0.06 | TΔS (SaHPPK [1]): -12.9 ± 3.5 kcal/mol | ΔG (SaHPPK [1]): -6.7 ± 0.2 kcal/mol | ΔH (SaHPPK [1]): -19.6 ± 3.4 kcal/mol | binding relative to the cofactor (ATP / AMPCPP) (SaHPPK [2]): non-competitive | IC50 (SaHPPK [3]): ~41 µM

CNc1nc2nc(N)[nH]c(=O)c2[nH]1 [10a, 8-(Methylamino)guanine]
Kd (SaHPPK [4]; [8]): 108 ± 5 µM | K D a (SaHPPK [4]; [9]): did not bind; also recorded: No binding | melting point: 252 to 257 °C (dec.)

Cn1c(S)nc2c(=O)[nH]c(N)nc21 [15a]
Kd (SaHPPK [4]; [8]): 410 ± 10 µM | Kd (SaHPPK [4]; [10]): 194 ± 5 µM

CCn1c(S)nc2c(=O)[nH]c(N)nc21 [15b, 8-Mercapto-9-ethylguanine]
Kd (SaHPPK [4]; [8]): 340 ± 10 µM | Kd (SaHPPK [4]; [10]): 190 ± 10 µM | melting point: 240 to 244 °C (dec.)

Nc1nc2c(nc(S)n2Cc2ccccc2)c(=O)[nH]1 [15c, 8-Mercapto-9-benzylguanine]
Kd (SaHPPK [4]; [8]): 201 ± 6 µM | Kd (SaHPPK [4]; [10]): 106 ± 2 µM | melting point: > 300 °C (dec.)

Nc1nc2c(nc(S)n2CCc2ccccc2)c(=O)[nH]1 [15d, 8-Mercapto-9-phenethylguanine]
Kd (SaHPPK [4]; [8]): 510 ± 20 µM | Kd (SaHPPK [4]; [10]): 145 ± 4 µM | melting point: 291 to 295 °C (dec.)

Nc1nc2nc(S)n(CCO)c2c(=O)[nH]1 [21a, 7-(2-Hydroxyethyl)-8-mercaptoguanine]
Kd (SaHPPK [4]; [8]): 130 ± 10 µM | Kd (SaHPPK [4]; [10]): 12.3 ± 1 µM | Kd (SaHPPK [4]; approximate value, over 15 heavy atoms, read-out: K D (ligand efficiency comparison)): ~10 µM | N (binding stoichiometry) (SaHPPK [5]): 0.8±0.10 | ΔH (SaHPPK [5]): -10.5 ± 0.6 kcal/mol | ΔG (SaHPPK [5]): -6.4 ± 0.1 kcal/mol | TΔS (SaHPPK [5]): -4.1 ± 0.5 kcal/mol | Kd (SaHPPK [5]): 16.7 ± 3.5 µM | binding relative to the cofactor (ATP / AMPCPP) (SaHPPK [6]; NMR (and SPR), saturating AMPCPP 1 mM, 10 mM magnesium): competitive binding with the ATP cofactor; also recorded: competitive with AMPCPP | magnesium dependence of binding (SaHPPK [6]; titration into apo and magnesium-loaded SaHPPK): not magnesium-dependent | melting point: > 300 °C

Nc1nc2nc(S)n(CC(=O)O)c2c(=O)[nH]1 [21b, 2-(8-Mercaptoguanin-7-yl)acetic acid]
Kd (SaHPPK [4]; [8]): 140 ± 4 µM | K D a (SaHPPK [4]; [9]): did not bind; also recorded: No binding | melting point: 247 to 253 °C (dec.)

NCCn1c(S)nc2nc(N)[nH]c(=O)c21 [21c, 7-(2-Aminoethyl)-8-mercaptoguanine]
Kd (SaHPPK [4]; [8]): 160 ± 20 µM | Kd (SaHPPK [4]; [10]): 26.4 ± 3 µM | N (binding stoichiometry) (SaHPPK [5]): 1.2±0.02 | ΔH (SaHPPK [5]): -5.8 ± 0.1 kcal/mol | ΔG (SaHPPK [5]): -6.2 ± 0.1 kcal/mol | TΔS (SaHPPK [5]): 0.4 ± 0.2 kcal/mol | Kd (SaHPPK [5]): 22.4 ± 2 µM | melting point: 280 to 287 °C (dec.)

NCCCn1c(S)nc2nc(N)[nH]c(=O)c21 [21d, 7-(3-Aminopropyl)-8-mercaptoguanine]
Kd (SaHPPK [4]; [8]): 121 ± 6 µM | Kd (SaHPPK [4]; [10]): 25.9 ± 2 µM | N (binding stoichiometry) (SaHPPK [5]): 1.3±0.05 | ΔH (SaHPPK [5]): -6.2 ± 0.4 kcal/mol | ΔG (SaHPPK [5]): -6.0 ± 0.1 kcal/mol | TΔS (SaHPPK [5]): -0.2 ± 0.5 kcal/mol | Kd (SaHPPK [5]): 34.3 ± 6.2 µM | melting point: 239 to 243 °C (dec.)

N=C(N)NCCn1c(S)nc2nc(N)[nH]c(=O)c21 [21e, 7-(2-Guanidinoethyl)-8-mercaptoguanine]
K D b (SaHPPK [4]; SPR, in the presence of 10 mM Mg2+/1 mM ATP, 293 K): No binding | Kd (SaHPPK [4]; [10]): 30 ± 4 µM | N (binding stoichiometry) (SaHPPK [5]): 1.4±0.02 | ΔH (SaHPPK [5]): -4.3 ± 0.1 kcal/mol | ΔG (SaHPPK [5]): -6.0 ± 0.1 kcal/mol | TΔS (SaHPPK [5]): 1.7 ± 0.2 kcal/mol | Kd (SaHPPK [5]): 35.1 ± 4.8 µM | melting point: 256 to 262 °C (dec.)

Nc1ncnc2c1ncn2[C@@H]1O[C@H](COP(=O)(O)CP(=O)(O)OP(=O)(O)O)[C@@H](O)[C@H]1O [AMPCPP]
Kd (SaHPPK [7]): 3000 nM

Nc1ncnc2c1ncn2[C@@H]1O[C@H](COP(=O)(O)OP(=O)(O)OP(=O)(O)O)[C@@H](O)[C@H]1O [ATP]
Kd (HPPK): 2.6 to 4.5 µM
